Results taken from PubChem BioAssay (NCI).
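Test compounds were applied to cells in 96-well plates for 48 hours at 5 doses. At the TGI there is no net growth.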

tested on: OVCAR-3 ovarian; assay: growth of human tumour cells (NCI), 48 h

SMILES	TGI
COc1ccccc1/C(=N\OCCC(=O)O)c1cccs1	> 100 µM
CC(C)(Br)C(Br)CCC1(C2CO2)CO1 (stereo unspecified)	> 5 µM
CCCn1c2ccccc2c2ccc3c(c21)C(=O)C=CC3=O	4.88 µM
CC1(c2cccs2)CC(c2cccs2)=C(C#N)C(=C(C#N)C#N)N1 (stereo unspecified)	32.1 µM
O=C1C2CC=CCC2C(=O)N1n1c(Cc2ccc(Cl)cc2)n[nH]c1=O (stereo unspecified)	> 100 µM
CCN(CC)CCC(=O)/C=C/c1ccccc1	12.1 µM
Oc1c(C2=NNC(c3ccc(Cl)cc3Cl)C2)ccc2ccccc12 (stereo unspecified)	> 100 µM

tested on: PC-3 prostate; assay: growth of human tumour cells (NCI), 48 h

SMILES	TGI
OC1[C@@H]2[C@@H](O)[C@H](O)[C@@H](O)N2C[C@@H]1O (stereo partly specified)	> 100 µM
C=C1C(=O)C[C@H]2C(=C)C(=O)O[C@@H]2C2C1CC[C@@]2(C)O (stereo partly specified)	> 100 µM
COC(=O)C1=C(C)NC2=C(C(=O)c3ccccc32)C1c1cn(-c2ccccc2)nc1-c1ccccc1 (stereo unspecified)	> 100 µM
OCC1OC(c2cccc3cc(O)c(O)cc23)CC1O (stereo unspecified)	> 100 µM
CC(C)(Cl)C(Br)CCC(C)(Cl)C(Br)CBr (stereo unspecified)	71 µM
O=C(NCC(=O)N1CCCC1C(=O)OC(=O)C1CCCN1C(=O)CNC(=O)OCc1ccccc1)OCc1ccccc1 (stereo unspecified)	> 100 µM
CN(Cc1cnc2nc(N)nc(N)c2n1)c1ccc(C(=O)NC(CCC(=O)NCCC(P(=O)(O)O)P(=O)(O)O)C(=O)O)cc1 (stereo unspecified)	> 100 µM
O=C1NC(NNc2ccccc2)=N/C1=C\c1ccccc1O	82 µM
C[N+](CCCl)(CCCl)Cc1cccc2cccc([N+](=O)[O-])c12	> 100 µM
O=C1NC(=O)C(c2c[nH]c3ccccc23)=C1c1cnc[nH]1	> 100 µM
Cc1c([N+](=O)[O-])ccc2c(NCCCN(C)C)ccnc12	41.6 µM
Cc1cc(C)nc(NC(=O)c2ccc(Br)s2)c1	> 100 µM
N#Cc1nc2ccccc2nc1N1CCN(c2ccc([N+](=O)[O-])cc2)CC1	> 100 µM
CN1CCN(C(=O)CCNC(=O)Cc2ccc(C(=O)c3ccccc3)cc2)CC1	> 100 µM
COc1cc(OC)c(-c2ccc(OCc3ccccc3)c3c(OC)cc(C)cc23)c2c1C(C)=N[C@H](C)C2	3.9 µM
COc1ccc(N2C(=O)C(=O)N(c3ccccc3[N+](=O)[O-])C2=S)cc1	> 100 µM
O=C(O)CC1NC(/C(=C/c2ccccc2)NC(=O)c2ccccc2)OC1=O (stereo unspecified)	> 100 µM
Nc1c2c(nc3cc(F)c(F)cc13)CCC2	> 100 µM
COc1ccccc1/C(=N\OCCC(=O)O)c1cccs1	> 100 µM
CC(C)(Br)C(Br)CCC1(C2CO2)CO1 (stereo unspecified)	> 5 µM
CCCn1c2ccccc2c2ccc3c(c21)C(=O)C=CC3=O	> 8.03 µM
CC1(c2cccs2)CC(c2cccs2)=C(C#N)C(=C(C#N)C#N)N1 (stereo unspecified)	29.8 µM
O=C1C2CC=CCC2C(=O)N1n1c(Cc2ccc(Cl)cc2)n[nH]c1=O (stereo unspecified)	> 100 µM
CCN(CC)CCC(=O)/C=C/c1ccccc1	27.3 µM
Oc1c(C2=NNC(c3ccc(Cl)cc3Cl)C2)ccc2ccccc12 (stereo unspecified)	> 100 µM

tested on: UO-31 renal; assay: growth of human tumour cells (NCI), 48 h

SMILES	TGI
OC1[C@@H]2[C@@H](O)[C@H](O)[C@@H](O)N2C[C@@H]1O (stereo partly specified)	> 100 µM
C=C1C(=O)C[C@H]2C(=C)C(=O)O[C@@H]2C2C1CC[C@@]2(C)O (stereo partly specified)	74.2 µM
COC(=O)C1=C(C)NC2=C(C(=O)c3ccccc32)C1c1cn(-c2ccccc2)nc1-c1ccccc1 (stereo unspecified)	> 100 µM
OCC1OC(c2cccc3cc(O)c(O)cc23)CC1O (stereo unspecified)	> 100 µM
CC(C)(Cl)C(Br)CCC(C)(Cl)C(Br)CBr (stereo unspecified)	> 100 µM
O=C(NCC(=O)N1CCCC1C(=O)OC(=O)C1CCCN1C(=O)CNC(=O)OCc1ccccc1)OCc1ccccc1 (stereo unspecified)	> 100 µM
CN(Cc1cnc2nc(N)nc(N)c2n1)c1ccc(C(=O)NC(CCC(=O)NCCC(P(=O)(O)O)P(=O)(O)O)C(=O)O)cc1 (stereo unspecified)	> 100 µM
O=C1NC(NNc2ccccc2)=N/C1=C\c1ccccc1O	> 100 µM
C[N+](CCCl)(CCCl)Cc1cccc2cccc([N+](=O)[O-])c12	> 100 µM
O=C1NC(=O)C(c2c[nH]c3ccccc23)=C1c1cnc[nH]1	> 100 µM
Cc1c([N+](=O)[O-])ccc2c(NCCCN(C)C)ccnc12	30.5 µM
Cc1cc(C)nc(NC(=O)c2ccc(Br)s2)c1	> 100 µM
N#Cc1nc2ccccc2nc1N1CCN(c2ccc([N+](=O)[O-])cc2)CC1	> 100 µM
CN1CCN(C(=O)CCNC(=O)Cc2ccc(C(=O)c3ccccc3)cc2)CC1	> 100 µM
COc1cc(OC)c(-c2ccc(OCc3ccccc3)c3c(OC)cc(C)cc23)c2c1C(C)=N[C@H](C)C2	2.63 µM
COc1ccc(N2C(=O)C(=O)N(c3ccccc3[N+](=O)[O-])C2=S)cc1	> 100 µM
O=C(O)CC1NC(/C(=C/c2ccccc2)NC(=O)c2ccccc2)OC1=O (stereo unspecified)	59 µM
Nc1c2c(nc3cc(F)c(F)cc13)CCC2	20.7 µM
COc1ccccc1/C(=N\OCCC(=O)O)c1cccs1	> 100 µM
CC(C)(Br)C(Br)CCC1(C2CO2)CO1 (stereo unspecified)	> 5 µM
CCCn1c2ccccc2c2ccc3c(c21)C(=O)C=CC3=O	> 10 µM
CC1(c2cccs2)CC(c2cccs2)=C(C#N)C(=C(C#N)C#N)N1 (stereo unspecified)	34.8 µM
O=C1C2CC=CCC2C(=O)N1n1c(Cc2ccc(Cl)cc2)n[nH]c1=O (stereo unspecified)	> 100 µM
CCN(CC)CCC(=O)/C=C/c1ccccc1	25.8 µM
Oc1c(C2=NNC(c3ccc(Cl)cc3Cl)C2)ccc2ccccc12 (stereo unspecified)	> 100 µM

tested on: SK-MEL-5 melanoma; assay: growth of human tumour cells (NCI), 48 h

SMILES	TGI
OC1[C@@H]2[C@@H](O)[C@H](O)[C@@H](O)N2C[C@@H]1O (stereo partly specified)	> 100 µM
C=C1C(=O)C[C@H]2C(=C)C(=O)O[C@@H]2C2C1CC[C@@]2(C)O (stereo partly specified)	> 100 µM
COC(=O)C1=C(C)NC2=C(C(=O)c3ccccc32)C1c1cn(-c2ccccc2)nc1-c1ccccc1 (stereo unspecified)	> 100 µM
CC(C)(Cl)C(Br)CCC(C)(Cl)C(Br)CBr (stereo unspecified)	34.5 µM
O=C(NCC(=O)N1CCCC1C(=O)OC(=O)C1CCCN1C(=O)CNC(=O)OCc1ccccc1)OCc1ccccc1 (stereo unspecified)	62.3 µM
CN(Cc1cnc2nc(N)nc(N)c2n1)c1ccc(C(=O)NC(CCC(=O)NCCC(P(=O)(O)O)P(=O)(O)O)C(=O)O)cc1 (stereo unspecified)	> 100 µM
C[N+](CCCl)(CCCl)Cc1cccc2cccc([N+](=O)[O-])c12	> 100 µM
O=C1NC(=O)C(c2c[nH]c3ccccc23)=C1c1cnc[nH]1	78.1 µM
Cc1c([N+](=O)[O-])ccc2c(NCCCN(C)C)ccnc12	29.6 µM
Cc1cc(C)nc(NC(=O)c2ccc(Br)s2)c1	17.6 µM
N#Cc1nc2ccccc2nc1N1CCN(c2ccc([N+](=O)[O-])cc2)CC1	> 100 µM
CN1CCN(C(=O)CCNC(=O)Cc2ccc(C(=O)c3ccccc3)cc2)CC1	> 100 µM
COc1cc(OC)c(-c2ccc(OCc3ccccc3)c3c(OC)cc(C)cc23)c2c1C(C)=N[C@H](C)C2	4.1 µM
COc1ccc(N2C(=O)C(=O)N(c3ccccc3[N+](=O)[O-])C2=S)cc1	32.5 µM
O=C(O)CC1NC(/C(=C/c2ccccc2)NC(=O)c2ccccc2)OC1=O (stereo unspecified)	32.3 µM
Nc1c2c(nc3cc(F)c(F)cc13)CCC2	> 100 µM
COc1ccccc1/C(=N\OCCC(=O)O)c1cccs1	> 100 µM
CC(C)(Br)C(Br)CCC1(C2CO2)CO1 (stereo unspecified)	> 5 µM
CCCn1c2ccccc2c2ccc3c(c21)C(=O)C=CC3=O	> 10 µM
CC1(c2cccs2)CC(c2cccs2)=C(C#N)C(=C(C#N)C#N)N1 (stereo unspecified)	28.8 µM
O=C1C2CC=CCC2C(=O)N1n1c(Cc2ccc(Cl)cc2)n[nH]c1=O (stereo unspecified)	> 100 µM
CCN(CC)CCC(=O)/C=C/c1ccccc1	44.8 µM
Oc1c(C2=NNC(c3ccc(Cl)cc3Cl)C2)ccc2ccccc12 (stereo unspecified)	> 100 µM

tested on: SNB-75 CNS; assay: growth of human tumour cells (NCI), 48 h

SMILES	TGI
OC1[C@@H]2[C@@H](O)[C@H](O)[C@@H](O)N2C[C@@H]1O (stereo partly specified)	> 100 µM
C=C1C(=O)C[C@H]2C(=C)C(=O)O[C@@H]2C2C1CC[C@@]2(C)O (stereo partly specified)	> 100 µM
COC(=O)C1=C(C)NC2=C(C(=O)c3ccccc32)C1c1cn(-c2ccccc2)nc1-c1ccccc1 (stereo unspecified)	> 100 µM
OCC1OC(c2cccc3cc(O)c(O)cc23)CC1O (stereo unspecified)	> 100 µM
CC(C)(Cl)C(Br)CCC(C)(Cl)C(Br)CBr (stereo unspecified)	93.9 µM
O=C(NCC(=O)N1CCCC1C(=O)OC(=O)C1CCCN1C(=O)CNC(=O)OCc1ccccc1)OCc1ccccc1 (stereo unspecified)	57.2 µM
CN(Cc1cnc2nc(N)nc(N)c2n1)c1ccc(C(=O)NC(CCC(=O)NCCC(P(=O)(O)O)P(=O)(O)O)C(=O)O)cc1 (stereo unspecified)	> 100 µM
O=C1NC(NNc2ccccc2)=N/C1=C\c1ccccc1O	> 100 µM
C[N+](CCCl)(CCCl)Cc1cccc2cccc([N+](=O)[O-])c12	> 100 µM
O=C1NC(=O)C(c2c[nH]c3ccccc23)=C1c1cnc[nH]1	> 100 µM
Cc1c([N+](=O)[O-])ccc2c(NCCCN(C)C)ccnc12	> 100 µM
Cc1cc(C)nc(NC(=O)c2ccc(Br)s2)c1	> 100 µM
N#Cc1nc2ccccc2nc1N1CCN(c2ccc([N+](=O)[O-])cc2)CC1	> 100 µM
CN1CCN(C(=O)CCNC(=O)Cc2ccc(C(=O)c3ccccc3)cc2)CC1	> 100 µM
COc1cc(OC)c(-c2ccc(OCc3ccccc3)c3c(OC)cc(C)cc23)c2c1C(C)=N[C@H](C)C2	4.04 µM
COc1ccc(N2C(=O)C(=O)N(c3ccccc3[N+](=O)[O-])C2=S)cc1	> 100 µM
O=C(O)CC1NC(/C(=C/c2ccccc2)NC(=O)c2ccccc2)OC1=O (stereo unspecified)	74 µM
Nc1c2c(nc3cc(F)c(F)cc13)CCC2	> 100 µM
COc1ccccc1/C(=N\OCCC(=O)O)c1cccs1	> 100 µM
CC(C)(Br)C(Br)CCC1(C2CO2)CO1 (stereo unspecified)	> 5 µM
CCCn1c2ccccc2c2ccc3c(c21)C(=O)C=CC3=O	> 10 µM
CC1(c2cccs2)CC(c2cccs2)=C(C#N)C(=C(C#N)C#N)N1 (stereo unspecified)	33.2 µM
O=C1C2CC=CCC2C(=O)N1n1c(Cc2ccc(Cl)cc2)n[nH]c1=O (stereo unspecified)	> 100 µM
CCN(CC)CCC(=O)/C=C/c1ccccc1	28.8 µM
Oc1c(C2=NNC(c3ccc(Cl)cc3Cl)C2)ccc2ccccc12 (stereo unspecified)	> 100 µM

tested on: DU-145 prostate; assay: growth of human tumour cells (NCI), 48 h

SMILES	TGI
OC1[C@@H]2[C@@H](O)[C@H](O)[C@@H](O)N2C[C@@H]1O (stereo partly specified)	> 100 µM
C=C1C(=O)C[C@H]2C(=C)C(=O)O[C@@H]2C2C1CC[C@@]2(C)O (stereo partly specified)	> 100 µM
COC(=O)C1=C(C)NC2=C(C(=O)c3ccccc32)C1c1cn(-c2ccccc2)nc1-c1ccccc1 (stereo unspecified)	> 100 µM
OCC1OC(c2cccc3cc(O)c(O)cc23)CC1O (stereo unspecified)	> 100 µM
CC(C)(Cl)C(Br)CCC(C)(Cl)C(Br)CBr (stereo unspecified)	85.2 µM
O=C(NCC(=O)N1CCCC1C(=O)OC(=O)C1CCCN1C(=O)CNC(=O)OCc1ccccc1)OCc1ccccc1 (stereo unspecified)	> 100 µM
CN(Cc1cnc2nc(N)nc(N)c2n1)c1ccc(C(=O)NC(CCC(=O)NCCC(P(=O)(O)O)P(=O)(O)O)C(=O)O)cc1 (stereo unspecified)	> 100 µM
O=C1NC(NNc2ccccc2)=N/C1=C\c1ccccc1O	> 100 µM
C[N+](CCCl)(CCCl)Cc1cccc2cccc([N+](=O)[O-])c12	> 100 µM
O=C1NC(=O)C(c2c[nH]c3ccccc23)=C1c1cnc[nH]1	> 100 µM
Cc1c([N+](=O)[O-])ccc2c(NCCCN(C)C)ccnc12	> 100 µM
